We go through 1 substance from patent US7214366B2, “Isolatable, water soluble, and hydrolytically stable active sulfones of poly(ethylene glycol) and related polymers for modification of surfaces and molecules” (Nektar Therapeutics AL, Corporation, priority 1993, dated 2007).

The conditions of the data set: pH 7.

In the case of “poly(ethylene glycol) chloroethyl sulfone [PEG chloroethyl sulfone]”, the “stability in water, NMR after extraction” value is listed as “stable”.
